Laboratory results reported in US11058725B2, “CA2 compositions and methods for tunable regulation” (Obsidian Therapeutics, Inc., priority 2019, dated 2021).
Read-outs that look alike come from different tables or passages of the source.

Key:
[1] = system: T cells; assay: Acetazolamide dose response of IL15 expression on transduced T cells (flow cytometry); assay type: cell-based, human; details: ACZ 24 hrs starting at 100 μM, diluted 3-fold for 9 points
Experimental: Cells were treated with different concentrations of ACZ (ligand) starting at 100 μM for 24 hrs. Graphs show % IL15+ T Cells (FIG. 4A) and mean fluorescence intensity (MFI) of IL15 (FIG. 4B).
The effect of different concentrations of ACZ on IL15 expression was tested. T cells were treated with ACZ for 24 hrs starting at 100 μM, diluted 3-fold for 9 points. Both % IL15+ T Cells (FIG. 4A) and IL15 Mean Fluorescence Intensity (MFI) (FIG. 4B) analysis indicated similar dose curves for OT-IL15-293 and OT-IL15-295. There was 4-5-fold increase in expression (both % IL15+ T cells and IL15 MFI) between highest and lowest concentrations of ACZ.

[2] = system: T cells; assay: IL15 expression on T cells in vivo on day 25 (IL15Ra-Fc staining, flow cytometry); parameters: species or system NSG mice; details: day 25, treated with ACZ 200 mg/kg daily PO
Experimental: Human primary T cells capable of expressing constitutive mbIL15 or ACZ-regulated mbIL15 were prepared in accordance with methods described in Example 1 above. After T cell transduction and expansion, CD3/CD28 beads were removed using magnets, cells were washed twice, resuspended in fresh media and counted. T cells were mixed with expanded NK cells and each animal received 5×10^6 T cells and 2×10^6 expanded NK cells. Cells were infused by intravenous injections into NSG mice. Animals infused with T cells expressing regulated constructs were dosed daily with 200 mg/kg ACZ or vehicle by PO injections. Every 3-4 days, 50 μL blood was analyzed by flow cytometry for presence of T cells and NK cells using antibodies against mouse and human CD45, CD3 and CD56. IL15 expression on day 25 was analyzed using IL15Ra-Fc and fluorochrome conjugated anti-human IgG antibody.
IL15 expression on T cells in vivo on day 25 was analyzed by flow cytometry (FIG. 5C). T cells transduced with constitutive constructs IL15-292 and IL15-294 expressed high levels of IL15 (82% and 61%). IL15 expression was <1.5% in vehicle-treated IL15-293 and IL15-295 as well as EV groups. IL15 expression levels were 11% and 9% on T cells transduced with IL15-293 and IL15-295 in groups treated with ACZ.

[3] = system: HL-60-luc; assay: HL-60 animal model of acute myeloid leukemia with engineered NK cells; assay type: in vivo, NSG mice
Experimental: To evaluate the effect of regulated mbIL15 on the anti-tumor activity of NK cells, an HL-60 animal model of acute myeloid leukemia is used. Cord blood NK cells are transduced with BaEV-pseudotyped lentiviral vectors containing either the IL15-292 construct or the IL15-293 construct, as described in Example 9, or with BaEV-pseudotyped lentiviral empty vector (EV), and optionally frozen after transduction. HL-60 cells expressing luciferase (HL-60-luc) are injected intravenously (1×10^6/mouse) into NSG mice and tumor growth is measured once or twice per week by bioluminescence imaging measurement (total flux units in photons per second (p/s) after intraperitoneal injections of D-luciferin). On day 6, animals are randomized into new cages (N=8 for each group) when average tumor size reaches approximately 10^6 total p/s. […]
Group 1 receives NK cells engineered with EV as a negative control, and group 2 receives NK cells transduced with constitutive mbIL5 (construct IL15-292). […] Red blood cells are lysed, stained with fluorochrome-conjugated antibodies against human CD45, CD3 and mouse CD45, and cells are analyzed by flow cytometry. Tumor growth is measured up to approximately 30 days; endpoints include maximal total flux units (10^10) as well as effects on animal health such as hind-limb paralysis and decrease in body weight.

[4] = system: Human primary T cells; assay: In vitro antigen-independent expansion of T cells transduced with constitutive or ACZ-regulated mbIL15 constructs (cell numbers by flow cytometry); assay type: cell-based
Experimental: T cells were thawed, cells were washed and counted. T cells were mixed with CD3/CD28 beads (Invitrogen cat#11141D) at 3:1 bead to T cell ratio. 5×10^5 cells/well were added to 24-well plates in 500 μL media. Cells were activated for 24 hrs. Next day, lentivirus was thawed and added to each well at different volumes. After 24 hrs, 500 μL of fresh media was added to wells, and cells were expanded by adding equal volume of fresh media every 2-3 days to keep cell density at 0.5-1×10^6/mL. Cells were analyzed by flow cytometry to confirm expression on day 5 or 6. Cells were expanded for 9-10 days.
After T cell transduction and expansion, CD3/CD28 beads were removed using magnets, cells were washed twice, resuspended in fresh media and counted. Cells were plated in 12-well plates at 1×10^6 in 2 mL. One well of untransduced cells was cultured in the presence of 2 ng/mL IL15 as a control. T cells expressing regulated constructs were cultured in the absence or presence of acetazolamide (ACZ, 30, 10, 3, 1, 0.3 μM). Cell numbers were monitored by flow cytometry every 3-4 days and cells were cultured for 10-12 days. At each time point 100 μL of cells were collected from wells and analyzed by flow cytometry. Cells were split as needed. Cell cultures were maintained in 12-well plates by taking a portion and adding media in a new plate. Volumes for each well were recorded before and after split to calculate final volume in cell number assessment. IL15 or ACZ were replenished at final concentration of the fresh media added during each split.
T cell numbers were determined by flow cytometry. Empty vector (EV) transduced cell numbers decreased to background levels between 3-5 days in the absence of IL15, and cells expanded 11-fold in the presence of 2 ng/mL exogenous IL15 (FIG. 3A). T cells expressing constitutive IL15-292 and IL15-294 expanded between 18 and 21-fold, respectively, in 10 days (FIG. 3A). In T cells expressing IL15-293, maximum expansion was 9.5-11× with 30, 10, 3 μM (FIG. 3B). At the lowest concentration tested (0.3 μM), cells expanded 3.3×. These cells survived longer (0.8×) compared to EV cells without drug treatment […]. In T cells expressing IL15-295, maximum expansion was 8.2-10× with 30, 10, 3 μM and cells expanded 4.9× at the lowest concentration (0.3 μM) tested (FIG. 3C). Without drug treatment, these cells survived (0.9×) longer compared to EV.

[5] = system: cord blood-derived NK cells; assay: Regulation of mbIL15 construct with ACZ in cord blood-derived NK cells (IL15Ra-Fc and anti-CD56 FACS); assay type: cell-based, human; details: DMSO overnight, regardless of donor
Experimental: One day prior to NK cell isolation as described in Example 8, feeder cells (K562 cells expressing 4-1BBL and mblL-21) were thawed in complete NK cell media (RPMI with Glutamax (ThermoFisher), 10% heat-inactivated fetal bovine serum (Gibco), 1× Penicillin/Streptomycin, 1 mM Sodium Pyruvate, 1×HEPES, 50 μM 2-Mercaptoethanol). On the day of NK cell isolation, 10×10^6 feeder cells were treated with mitomycin C to inhibit their proliferation and washed to remove excess drug. NK cells were added to the feeder cells at a 1:2 effector to target ratio in NK cell media with 200 U/mL recombinant human IL2 (rhIL2; PeproTech). NK cell cultures were expanded by replenishing cell cultures with NK cell media and rhIL2 every two days, and analyzed by FACS for NK cell expansion.
96-well non-coated tissue culture plates were incubated with 35 μg per mL RetroNectin (Takara Bio) in PBS for 2 h at 37° C. or overnight at 4° C. RetroNectin was removed and the plates washed with PBS. […]
NK cells from three different donors were isolated, expanded and transduced with BaEV-pseudotyped lentivirus containing either the IL15-292 construct or the IL15-293 construct. The titer of the IL15-292 lentivirus was 2.38×10^8 TU/mL while the titer for the IL15-293 lentivirus was 6.51×10^8 TU/mL (as measured by a Jurkat qPCR titer), and 4 μL lentivirus and 46 μL NK cell media were added to each well. […]

[6] = system: TIL; assay: Expression of regulated mbIL15 in TIL in response to ACZ (anti-IL15 and IL15Ra-Fc co-staining); assay type: cell-based, human
Experimental: HEK293T cells were seeded on collagen coated tissue culture plates until 70% confluent. Cells were transfected with pELNS transfer vector carrying constitutive (IL15-292) or regulated (IL15-293) IL15 constructs, as well as packaging plasmids (pRSV.REV, pMDLg/pRRE and OT-BaEVg-002 (SEQ ID NO: 51)) using Lipofectamine 3000 transfection reagent in Opti-MEM media. Media was replaced 6-8 hrs post-transfection with serum-free media. Supernatants containing virus were harvested 24 hr post-transfection, fresh media was added, and supernatants were harvested again at 48 hr post-transfection. Viral supernatants were filtered to remove debris and concentrated by low speed ultracentrifugation. Virus were resuspended, aliquoted and stored at −80 C freezer.
96-well non-coated tissue culture plates were incubated with 35 μg per mL RetroNectin (Takara Bio) in PBS for 2 h at 37° C. or overnight at 4° C. RetroNectin was removed and the plates washed with PBS. BaEV-pseudotyped lentivirus, prepared as described above, and TIL cell media, at a total volume of 50 μL per well, were added to each well and the plates were centrifuged at low speed for 2 hours at 32° C. TIL generated from a head and neck tumor sample prepared as described in Example 5 were engineered after 3 weeks in the pre-REP culture. TIL were activated for 24 hrs in 24-well plates with anti-CD3/CD28 beads at 3:1 bead to T cell ratio. Activated TIL were placed in virus-coated plates and centrifuged at 800 g for 2 hrs and incubated at 37° C. for 4 days in culture media. One well of cells was processed similarly without virus addition and used as negative control (“untransduced”). Cells that were transduced with the regulated mbIL15 construct were treated either with 10 μM ACZ or DMSO for 24 hrs.
mbIL15 expression was determined by flow cytometry using two staining reagents: fluorochrome-conjugated anti-IL15 antibody as well as a recombinant protein comprised of extracellular domain of IL15Ra fused to human IgG1 Fc domain (IL15Ra-Fc). mbIL15+ cell frequency was determined based on co-staining with anti-IL15 and IL15Ra-Fc (identified as the IL15+IL15Ra-Fc+ double positive population).

[7] = system: TIL-matched patient-derived xenografts (hPDX); assay: Human PDX (hPDX) model with engineered matched TIL; assay type: in vivo, NSG mice
Text: To evaluate the effect of regulated mbIL15 on the anti-tumor activity of tumor infiltrating lymphocytes (TIL), a human PDX (hPDX) model is used. […] TIL are transduced with BaEV-pseudotyped lentiviral vectors containing either the IL15-292 construct or the IL15-293 construct, as described in Example 6, or with BaEV-pseudotyped lentiviral empty vector (EV), and then optionally frozen. TIL-matched patient-derived xenografts (hPDX) from the tumor sample are established via subcutaneous implant into the right flank of NSG mice. Tumor growth is measured once or twice per week using calipers. On study start, tumors are measured, and mice are randomized and placed in cohorts based on similar mean tumor volume across all groups into new cages (N=8 for each group). […]
Group 1 receives untransduced TIL supplemented with recombinant human IL2 (hIL2) as benchmark control, and group 2 receives TIL transduced with constitutive mbIL15 (IL15-292). […] Blood (50 μL) was withdrawn from submandibular veins on pre-determined days. Red blood cells are lysed, stained with fluorochrome-conjugated antibodies against human CD45, CD3 and mouse CD45, and cells are analyzed by flow cytometry. Tumor growth is measured for up to approximately 90 days; endpoints include maximal caliper measurements as well as effects on animal health, such as tumor necrosis and decrease in body weight.

For “IL15-293: ACZ-regulated mbIL15 construct, mbIL15 linked to CA2 (M1del, L156H) DRD (AA SEQ ID NO: 24)”, the EC50 ([1]; read-out: EC50 of ACZ based on % IL15+ T Cells) was 290 nM, the EC50 ([1]; read-out: EC50 of ACZ based on MFI of IL15) was 650 nM and the “IL15 expression on T cells” value [2] was 11%. The tumor growth ([3]; group 3, NK cells transduced with regulated mbIL15, 200 mg/kg ACZ daily PO) was “regress substantially”, the “NK cell expansion and persistence compared to groups 1 and 4” value ([3]; group 3, regulated mbIL15, 200 mg/kg ACZ daily PO) was “higher expansion and persistence” and the “T cell expansion at the lowest concentration tested” value ([4]; ACZ 0.3 μM) was 3.3 ×. The “maximum T cell expansion” value ([4]; ACZ 30, 10, 3 μM) was 9.5-11 ×, the “T cell survival/expansion without drug treatment” value ([4]; no ACZ) was 0.8 × and the “regulated mbIL15 expression in NK cells” value [5] was no more than 10%. For the same substance, the “MFI of regulated mbIL15 in TIL” value ([6]; 10 μM ACZ 24 hrs) was “high”, the “regulated mbIL15 expression in TIL” value ([6]; 10 μM ACZ 24 hrs) was 42.5% and the “MFI of regulated mbIL15 in TIL” value ([6]; DMSO 24 hrs) was “low”. The “regulated mbIL15 expression in TIL” value ([6]; DMSO 24 hrs) was 17.1%, the tumor growth ([7]; group 3, TIL transduced with regulated mbIL15, 200 mg/kg ACZ daily PO) was “substantially regress” and the tumor growth ([7]; group 4, TIL transduced with regulated mbIL15, vehicle daily) was “No tumor growth inhibition”.
In the case of “exogenous IL15: exogenous IL15 (2 ng/mL) added to control T cell cultures [reference compound]”, the T cell expansion ([4]; Empty vector (EV) transduced cells, 2 ng/mL exogenous IL15) is reported as 11 fold.
